Data from ChEMBL document CHEMBL1201861, “Genomics of Drug Sensitity in Cancer screening data, Wellcome Trust Sanger Institute”.

Assays:
Test in all cases: cells
Conditions in all cases: Homo sapiens
COLO-829 = assay type: functional, cell-based
Description: SANGER: Inhibition of human COLO-829 cell growth in a cell viability assay.

COR-L88 = assay type: functional, cell-based;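 further: growth inhibition of COR-L88 cells, read out with a cell viability assay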
Description: SANGER: Inhibition of human COR-L88 cell growth in a cell viability assay.

CTB-1 = assay type: functional, cell-based
Description: SANGER: Inhibition of human CTB-1 cell growth in a cell viability assay.

CW-2 = assay type: functional, cell-based;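 further: growth inhibition of CW-2 cells, read out by a cell viability assay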
Description: SANGER: Inhibition of human CW-2 cell growth in a cell viability assay.

D283 Med = assay type: functional, cell-based
Description: SANGER: Inhibition of human D-283MED cell growth in a cell viability assay.

D-502MG = assay type: functional, cell-based
Description: SANGER: Inhibition of human D-502MG cell growth in a cell viability assay.

DOHH-2 = assay type: functional, cell-based;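 further: growth inhibition of human DOHH-2 cells, read out with a cell viability assay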
Description: SANGER: Inhibition of human DOHH-2 cell growth in a cell viability assay.

EM-2 = assay type: functional, cell-based;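 further: growth inhibition of EM-2 cells, read out with a cell viability assay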
Description: SANGER: Inhibition of human EM-2 cell growth in a cell viability assay.

ES7 = assay type: functional, cell-based;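 further: growth inhibition of cultured human ES7 cells, read out as cell viability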
Description: SANGER: Inhibition of human ES7 cell growth in a cell viability assay.

EW-1 = assay type: functional, cell-based
Description: SANGER: Inhibition of human EW-1 cell growth in a cell viability assay.

EW-16 = assay type: functional, cell-based;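 further: growth inhibition of human EW-16 cells, read out as cell viability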
Description: SANGER: Inhibition of human EW-16 cell growth in a cell viability assay.

EW-18 = assay type: functional, cell-based;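 further: growth inhibition of EW-18 cells, read out by a cell viability assay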
Description: SANGER: Inhibition of human EW-18 cell growth in a cell viability assay.

EW-3 = assay type: functional, cell-based;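 further: cell viability assay read-out, IC50 reflects inhibition of growth of the EW-3 cells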
Description: SANGER: Inhibition of human EW-3 cell growth in a cell viability assay.

HCE-4 = assay type: functional, cell-based;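 further: cell viability assay measuring inhibition of growth in the human HCE-4 cell line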
Description: SANGER: Inhibition of human HCE-4 cell growth in a cell viability assay.

HCE-T = assay type: functional, cell-based;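 further: cell viability assay read-out, reporting inhibition of HCE-T cell growth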
Description: SANGER: Inhibition of human HCE-T cell growth in a cell viability assay.

HOP-62 = assay type: functional, cell-based;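 further: cell growth inhibition determined with a viability assay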
Description: SANGER: Inhibition of human HOP-62 cell growth in a cell viability assay.

HT-144 = assay type: functional, cell-based
Description: SANGER: Inhibition of human HT-144 cell growth in a cell viability assay.

IA-LM = assay type: functional, cell-based;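 further: cell viability assay measuring growth inhibition of human IA-LM cells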
Description: SANGER: Inhibition of human IA-LM cell growth in a cell viability assay.

K5 = assay type: functional, cell-based
Description: SANGER: Inhibition of human K5 cell growth in a cell viability assay.

KGN = assay type: functional, cell-based;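 further: growth inhibition of KGN cells, read out with a cell viability assay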
Description: SANGER: Inhibition of human KGN cell growth in a cell viability assay.

KM12 = assay type: functional, cell-based;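 further: KM12 cell growth inhibition, read out with a cell viability assay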
Description: SANGER: Inhibition of human KM12 cell growth in a cell viability assay.

LB2241-RCC = assay type: functional, cell-based;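 further: cell viability assay measuring how strongly the cultured human renal carcinoma line is prevented from growing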
Description: SANGER: Inhibition of human LB2241-RCC cell growth in a cell viability assay.

LB771-HNC = assay type: functional, cell-based;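 further: growth inhibition of LB771-HNC human cells, read out with a cell viability assay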
Description: SANGER: Inhibition of human LB771-HNC cell growth in a cell viability assay.

LC-2-ad = assay type: functional, cell-based;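 further: growth inhibition of human LC-2-ad cells, read out with a cell viability assay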
Description: SANGER: Inhibition of human LC-2-ad cell growth in a cell viability assay.

LS-1034 = assay type: functional, cell-based
Description: SANGER: Inhibition of human LS-1034 cell growth in a cell viability assay.

LS-123 = assay type: functional, cell-based
Description: SANGER: Inhibition of human LS-123 cell growth in a cell viability assay.

LS-411N = assay type: functional, cell-based
LU-139 = assay type: functional, cell-based
Description: SANGER: Inhibition of human LU-139 cell growth in a cell viability assay.

MFH-ino = assay type: functional, cell-based;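 further: growth inhibition of human MFH-ino cells, read out by a cell viability assay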
Description: SANGER: Inhibition of human MFH-ino cell growth in a cell viability assay.

MHH-NB-11 = assay type: functional, cell-based;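 further: growth inhibition of human MHH-NB-11 cells, read out by a cell viability assay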
Description: SANGER: Inhibition of human MHH-NB-11 cell growth in a cell viability assay.

ML-2 = assay type: functional, cell-based;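 further: growth inhibition of ML-2 cells, measured with a cell viability readout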
Description: SANGER: Inhibition of human ML-2 cell growth in a cell viability assay.

MPP-89 = assay type: functional, cell-based;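 further: growth inhibition of human MPP-89 cells, read out with a cell viability assay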
Description: SANGER: Inhibition of human MPP-89 cell growth in a cell viability assay.

NB13 = assay type: functional, cell-based;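 further: cell viability readout measuring growth inhibition of human NB13 cells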
Description: SANGER: Inhibition of human NB13 cell growth in a cell viability assay.

NB69 = assay type: functional, cell-based;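 further: growth inhibition of NB69 cells, determined by a cell viability assay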
Description: SANGER: Inhibition of human NB69 cell growth in a cell viability assay.

NCI-H1581 = assay type: functional, cell-based;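 further: cell growth inhibition read out by a viability assay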
Description: SANGER: Inhibition of human NCI-H1581 cell growth in a cell viability assay.

NCI-H209 = assay type: functional, cell-based;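 further: growth inhibition of human NCI-H209 cells, measured by a cell viability assay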
Description: SANGER: Inhibition of human NCI-H209 cell growth in a cell viability assay.

NCI-H2126 = assay type: functional, cell-based;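 further: growth inhibition of the cancer cell line, determined with a cell viability readout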
Description: SANGER: Inhibition of human NCI-H2126 cell growth in a cell viability assay.

NCI-H226 = assay type: functional, cell-based;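 further: cell viability read-out used to gauge growth inhibition of the cells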
Description: SANGER: Inhibition of human NCI-H226 cell growth in a cell viability assay.

NCI-H23 = assay type: functional, cell-based;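 further: cell viability assay measuring growth inhibition of NCI-H23 cells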
Description: SANGER: Inhibition of human NCI-H23 cell growth in a cell viability assay.

SNU-5 = assay type: functional, cell-based;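 further: cell viability readout used to measure growth inhibition in human NCI-SNU-5 cells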
Description: SANGER: Inhibition of human NCI-SNU-5 cell growth in a cell viability assay.

NH-12 = assay type: functional, cell-based;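 further: growth inhibition of NH-12 cells, read out with a cell viability assay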
Description: SANGER: Inhibition of human NH-12 cell growth in a cell viability assay.

NMC-G1 = assay type: functional, cell-based;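 further: growth inhibition of the NMC-G1 cell line, measured with a cell viability read-out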
Description: SANGER: Inhibition of human NMC-G1 cell growth in a cell viability assay.

OS-RC-2 = assay type: functional, cell-based;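 further: growth inhibition of human OS-RC-2 cells, measured by a cell viability assay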
Description: SANGER: Inhibition of human OS-RC-2 cell growth in a cell viability assay.

P30-OHK = assay type: functional, cell-based;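 further: growth inhibition of the P30-OHK cell line, read out with a cell viability assay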
Description: SANGER: Inhibition of human P30-OHK cell growth in a cell viability assay.

PSN1 = assay type: functional, cell-based;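 further: suppression of growth of human PSN1 cells, read out by a cell viability assay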
Description: SANGER: Inhibition of human PSN1 cell growth in a cell viability assay.

QIMR-WIL = assay type: functional, cell-based;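 further: growth inhibition of QIMR-WIL cells, read out with a cell viability assay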
Description: SANGER: Inhibition of human QIMR-WIL cell growth in a cell viability assay.

SF-539 = assay type: functional, cell-based;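 further: Read-out is a cell viability assay, with IC50 reflecting inhibition of cell growth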
Description: SANGER: Inhibition of human SF539 cell growth in a cell viability assay.

SJSA-1 = assay type: functional, cell-based;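 further: growth inhibition of human SJSA-1 cells, read out through a cell viability measurement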
Description: SANGER: Inhibition of human SJSA-1 cell growth in a cell viability assay.

SK-LMS-1 = assay type: functional, cell-based;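 further: growth inhibition of human SK-LMS-1 cells, read out with a cell viability assay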
Description: SANGER: Inhibition of human SK-LMS-1 cell growth in a cell viability assay.

SW684 = assay type: functional, cell-based;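 further: growth inhibition of human SW684 cells, measured by a cell viability assay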
Description: SANGER: Inhibition of human SW684 cell growth in a cell viability assay.

SW872 = assay type: functional, cell-based;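 further: growth inhibition of SW872 cells, read out by a viability assay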
Description: SANGER: Inhibition of human SW872 cell growth in a cell viability assay.

TE-1 = assay type: functional, cell-based
Description: SANGER: Inhibition of human TE-1 cell growth in a cell viability assay.

8-MG-BA = assay type: functional, cell-based;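 further: growth inhibition of 8-MG-BA cells, read out with a cell viability assay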
Description: SANGER: Inhibition of human 8-MG-BA cell growth in a cell viability assay.

A3-KAW = assay type: functional, cell-based;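 further: growth inhibition of human A3-KAW cells, read out with a cell viability assay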
Description: SANGER: Inhibition of human A3-KAW cell growth in a cell viability assay.

A4-Fuk = assay type: functional, cell-based;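 further: growth inhibition of A4-Fuk cells, read out by a cell viability assay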
Description: SANGER: Inhibition of human A4-Fuk cell growth in a cell viability assay.

A498 = assay type: functional, cell-based;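 further: growth inhibition of human A498 cells, read out with a cell viability assay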
Description: SANGER: Inhibition of human A498 cell growth in a cell viability assay.

ACN = assay type: functional, cell-based;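 further: growth inhibition of the human ACN cell line, read out via cell viability testing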
Description: SANGER: Inhibition of human ACN cell growth in a cell viability assay.

ALL-PO = assay type: functional, cell-based;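 further: growth inhibition of ALL-PO cells, read out by a cell viability assay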
Description: SANGER: Inhibition of human ALL-PO cell growth in a cell viability assay.

BB30-HNC = assay type: functional, cell-based;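 further: growth inhibition of the cultured cell line, read out by a cell viability assay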
Description: SANGER: Inhibition of human BB30-HNC cell growth in a cell viability assay.

BB65-RCC = assay type: functional, cell-based
Description: SANGER: Inhibition of human BB65-RCC cell growth in a cell viability assay.

BV-173 = assay type: functional, cell-based
Description: SANGER: Inhibition of human BV-173 cell growth in a cell viability assay.

TE-11 = assay type: functional, cell-based
Description: SANGER: Inhibition of human TE-11 cell growth in a cell viability assay.

TE-8 = assay type: functional, cell-based
Description: SANGER: Inhibition of human TE-8 cell growth in a cell viability assay.

U-87 MG = assay type: functional, cell-based, U-87MG ATCC
Description: SANGER: Inhibition of human U-87-MG cell growth in a cell viability assay.

CAS-1 = assay type: functional, cell-based
Description: SANGER: Inhibition of human CAS-1 cell growth in a cell viability assay.

COLO-668 = assay type: functional, cell-based
Description: SANGER: Inhibition of human COLO-668 cell growth in a cell viability assay.

Work on Cc1[nH]c(/C=C2\C(=O)Nc3ccc(S(=O)(=O)Cc4c(Cl)cccc4Cl)cc32)c(C)c1C(=O)N1CCC[C@@H]1CN1CCCC1 [PHA-665752] yielded an IC50 (COLO-829) of over 2 µM, an IC50 (COR-L88) of over 2 µM and an IC50 (CTB-1) of over 2 µM. The IC50 (CW-2) was over 2 µM, the IC50 (D283 Med) was over 2 µM and the IC50 (D-502MG) was over 2 µM. For the same compound, the IC50 (DOHH-2) was over 2 µM, the IC50 (EM-2) was over 2 µM and the IC50 (ES7) was over 2 µM. The IC50 (EW-1) was over 2 µM, the IC50 (EW-16) was over 2 µM and the IC50 (EW-18) was over 2 µM. For the same compound, the IC50 (EW-3) was over 2 µM, the IC50 (HCE-4) was over 2 µM and the IC50 (HCE-T) was over 2 µM. For the same compound, the IC50 (HOP-62) was over 2 µM, the IC50 (HT-144) was over 2 µM and the IC50 (IA-LM) was over 2 µM. For the same compound, the IC50 (K5) was over 2 µM, the IC50 (KGN) was over 2 µM and the IC50 (KM12) was over 2 µM. It also gave an IC50 (LB2241-RCC) of 0.157 µM, an IC50 (LB771-HNC) of over 2 µM and an IC50 (LC-2-ad) of over 2 µM. For the same compound, the IC50 (LS-1034) was over 2 µM, the IC50 (LS-123) was over 2 µM and the IC50 (LS-411N) was over 2 µM. The IC50 (LU-139) was over 2 µM, the IC50 (MFH-ino) was over 2 µM and the IC50 (MHH-NB-11) was over 2 µM. The IC50 (ML-2) was over 2 µM, the IC50 (MPP-89) was over 2 µM and the IC50 (NB13) was over 2 µM. The IC50 (NB69) was over 2 µM, the IC50 (NCI-H1581) was over 2 µM and the IC50 (NCI-H209) was over 2 µM. It also gave an IC50 (NCI-H2126) of over 2 µM, an IC50 (NCI-H226) of over 2 µM and an IC50 (NCI-H23) of over 2 µM. The IC50 (SNU-5) was 0.124 µM, the IC50 (NH-12) was over 2 µM and the IC50 (NMC-G1) was over 2 µM. It also gave an IC50 (OS-RC-2) of over 2 µM, an IC50 (P30-OHK) of over 2 µM and an IC50 (PSN1) of over 2 µM. It also gave an IC50 (QIMR-WIL) of over 2 µM, an IC50 (SF-539) of over 2 µM and an IC50 (SJSA-1) of over 2 µM. For the same compound, the IC50 (SK-LMS-1) was 0.898 µM, the IC50 (SW684) was over 2 µM and the IC50 (SW872) was over 2 µM. It also gave an IC50 (TE-1) of over 2 µM, an IC50 (8-MG-BA) of over 2 µM and an IC50 (A3-KAW) of over 2 µM. It also gave an IC50 (A4-Fuk) of over 2 µM, an IC50 (A498) of over 2 µM and an IC50 (ACN) of over 2 µM. For the same compound, the IC50 (ALL-PO) was 0.813 µM, the IC50 (BB30-HNC) was over 2 µM and the IC50 (BB65-RCC) was over 2 µM. The IC50 (BV-173) was over 2 µM, the IC50 (TE-11) was over 2 µM and the IC50 (TE-8) was over 2 µM. It also gave an IC50 (U-87 MG) of over 2 µM, an IC50 (CAS-1) of over 2 µM and an IC50 (COLO-668) of over 2 µM.
CC(C)=CC[C@@H](O)C1=CC(=O)c2c(O)ccc(O)c2C1=O [SHIKONIN] gave an IC50 (COLO-829) of 0.658 µM, an IC50 (COR-L88) of over 16 µM and an IC50 (CTB-1) of 0.859 µM. The IC50 (CW-2) was over 16 µM, the IC50 (D283 Med) was 0.835 µM and the IC50 (D-502MG) was 4.37 µM. The IC50 (DOHH-2) was 0.706 µM, the IC50 (EM-2) was 0.977 µM and the IC50 (ES7) was 0.548 µM. For the same compound, the IC50 (EW-1) was 0.844 µM, the IC50 (EW-16) was 0.299 µM and the IC50 (EW-18) was 0.529 µM. The IC50 (EW-3) was 0.722 µM, the IC50 (HCE-4) was 0.389 µM and the IC50 (HCE-T) was 0.72 µM. The IC50 (HOP-62) was 1.16 µM, the IC50 (HT-144) was 0.561 µM and the IC50 (IA-LM) was 2.08 µM. For the same compound, the IC50 (K5) was 0.734 µM, the IC50 (KGN) was 1.31 µM and the IC50 (KM12) was 0.74 µM. The IC50 (LB2241-RCC) was 1.29 µM, the IC50 (LB771-HNC) was over 16 µM and the IC50 (LC-2-ad) was 0.953 µM. For the same compound, the IC50 (LS-1034) was 2.75 µM, the IC50 (LS-123) was 0.538 µM and the IC50 (LS-411N) was 3.19 µM. For the same compound, the IC50 (LU-139) was 6.26 µM, the IC50 (MFH-ino) was 0.864 µM and the IC50 (MHH-NB-11) was 0.486 µM. The IC50 (ML-2) was 0.618 µM, the IC50 (MPP-89) was 0.857 µM and the IC50 (NB13) was 0.317 µM. It also gave an IC50 (NB69) of 0.213 µM, an IC50 (NCI-H1581) of over 16 µM and an IC50 (NCI-H209) of 12.3 µM. It also gave an IC50 (NCI-H2126) of 15.6 µM, an IC50 (NCI-H226) of 0.645 µM and an IC50 (NCI-H23) of over 16 µM. The IC50 (SNU-5) was 9.54 µM, the IC50 (NH-12) was 0.85 µM and the IC50 (NMC-G1) was 1.3 µM. The IC50 (OS-RC-2) was 0.314 µM, the IC50 (P30-OHK) was 0.22 µM and the IC50 (PSN1) was over 16 µM. It also gave an IC50 (QIMR-WIL) of 0.182 µM, an IC50 (SF-539) of 0.857 µM and an IC50 (SJSA-1) of 5.53 µM. It also gave an IC50 (SK-LMS-1) of 0.108 µM, an IC50 (SW684) of 0.777 µM and an IC50 (SW872) of 0.367 µM. The IC50 (TE-1) was 15.8 µM, the IC50 (8-MG-BA) was 0.0856 µM and the IC50 (A3-KAW) was 2.14 µM. It also gave an IC50 (A4-Fuk) of 0.25 µM, an IC50 (A498) of 0.0819 µM and an IC50 (ACN) of 0.917 µM. The IC50 (ALL-PO) was 0.315 µM, the IC50 (BB30-HNC) was 0.243 µM and the IC50 (BB65-RCC) was 0.695 µM. It also gave an IC50 (BV-173) of 0.436 µM, an IC50 (TE-11) of 4.01 µM and an IC50 (TE-8) of 1.28 µM. It also gave an IC50 (U-87 MG) of 1.28 µM, an IC50 (CAS-1) of 0.462 µM and an IC50 (COLO-668) of 6.2 µM.
